Among the test systems are T-47D breast; MDA-MB-231 breast; IGROV1 ovarian; HL-60(TB) leukemia; SK-OV-3 ovarian; SF-539 CNS; OVCAR-4 ovarian; COLO 205 colon; ACHN renal; SR leukemia.
Assay in all cases: inhibition of tumour cell growth, NCI panel, 48 h

Each structure is given as a SMILES string.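 The compound was tested at five concentrations on cells cultured in 96-well plates, with a 48-hour exposure period. At the GI50, growth is halved. TGI: total growth inhibition.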

With `COc1cc2oc3c(c(=O)c2c(O)c1/C=C/C(C)C)C(C=C(C)C)Oc1cc(O)ccc1-3` (configuration not stated), the TGI amounted to 31 µM with T-47D breast; 33.2 µM in the test on MDA-MB-231 breast; 27.7 µM in the test on IGROV1 ovarian; 56.1 µM in the test with HL-60(TB) leukemia; 30.5 µM with SK-OV-3 ovarian; 31.8 µM with SF-539 CNS. Also, the TGI in the test on OVCAR-4 ovarian was found to be 31.5 µM; in the test on COLO 205 colon, 29.4 µM; with ACHN renal, 29.4 µM.

Consider `COCCOCCOCc1n(Cc2ccc3ccccc3n2)c2ccccc2[n+]1Cc1ccc2ccccc2n1`, for which the GI50 was 302 nM with T-47D breast; 1.02 µM in the test on MDA-MB-231 breast; 0.645 µM in the test on IGROV1 ovarian; 260 nM with HL-60(TB) leukemia; 1.79 µM in the test with SK-OV-3 ovarian; 0.852 µM with SF-539 CNS. Further, the GI50 in the test with OVCAR-4 ovarian was 0.373 µM; in the test on SR leukemia, 0.663 µM; in the test on COLO 205 colon, 284 nM; in the test on ACHN renal it was 13.7 µM. Further, the TGI in the test on T-47D breast came to 13.1 µM; with MDA-MB-231 breast it was 9.58 µM; with IGROV1 ovarian, 11.8 µM; in the test with HL-60(TB) leukemia it was 1.31 µM; in the test on SK-OV-3 ovarian it was 6.6 µM; in the test on SF-539 CNS, 13.6 µM. The TGI came out at 13.3 µM in the test with OVCAR-4 ovarian, 11.8 µM in the test on SR leukemia, 1.5 µM in the test with COLO 205 colon and 81.7 µM in the test with ACHN renal.

On to `Cc1cc(O)c(C2=NN(c3ccc(S(N)(=O)=O)cc3)C(/C=C/c3ccccc3)C2)cc1Cl` (configuration not stated), for which the GI50 in the test on T-47D breast was 3380 nM; with MDA-MB-231 breast, 4.56 µM; in the test on IGROV1 ovarian, 4.32 µM; in the test with HL-60(TB) leukemia, 68300 nM; in the test on SK-OV-3 ovarian, 5.52 µM; in the test on SF-539 CNS, 2.98 µM. In addition, the GI50 was 3.74 µM in the test on OVCAR-4 ovarian, 12.7 µM in the test with SR leukemia, 10400 nM in the test with COLO 205 colon and 5.27 µM in the test with ACHN renal. In addition, the TGI in the test with T-47D breast was 14.7 µM; in the test on MDA-MB-231 breast, 16.3 µM; in the test with IGROV1 ovarian, 19.8 µM; in the test on HL-60(TB) leukemia, more than 100 µM; in the test on SK-OV-3 ovarian, 17.9 µM; in the test with SF-539 CNS, 14 µM. For the same compound, the TGI with OVCAR-4 ovarian came out at 18.9 µM; in the test on SR leukemia, 33.8 µM; with COLO 205 colon, 22.1 µM; in the test on ACHN renal, 21.9 µM.

In the case of `NC(=O)c1sc(-n2cnc3cc(C(F)(F)F)ccc32)cc1OCc1ccccc1Br`, the GI50 was more than 21000 nM in the test on T-47D breast; more than 17.6 µM in the test with MDA-MB-231 breast; more than 25 µM in the test on IGROV1 ovarian; more than 25000 nM in the test with HL-60(TB) leukemia; 9.07 µM in the test with SK-OV-3 ovarian; 24.9 µM in the test with SF-539 CNS. Besides, the GI50 in the test with OVCAR-4 ovarian is 9.02 µM; with SR leukemia it was more than 21.2 µM; in the test on COLO 205 colon it was more than 25000 nM; with ACHN renal, more than 22.4 µM. Further, the TGI with T-47D breast, in the test with MDA-MB-231 breast, in the test with IGROV1 ovarian, with HL-60(TB) leukemia, in the test with SK-OV-3 ovarian and in the test with SF-539 CNS was more than 25 µM in each case. The TGI with OVCAR-4 ovarian, in the test on SR leukemia, with COLO 205 colon and in the test on ACHN renal was more than 25 µM in each case.

Turning to `O=C1N(Cc2ccccc2Cl)c2ccccc2C12NN=C(c1cccc(Cl)c1)S2` (configuration not stated), the GI50 in the test on T-47D breast is 1620 nM; in the test with MDA-MB-231 breast, 2.02 µM; in the test with IGROV1 ovarian, 1.78 µM; in the test with HL-60(TB) leukemia it was 2490 nM; in the test on SK-OV-3 ovarian, 1.69 µM; in the test with OVCAR-4 ovarian it was 1.95 µM. Also, the GI50 was 2.14 µM in the test on SR leukemia, 1770 nM with COLO 205 colon and 1.81 µM with ACHN renal. For the same compound, the TGI in the test on T-47D breast is 3.1 µM; with MDA-MB-231 breast, 4.2 µM; in the test on IGROV1 ovarian, 3.75 µM; in the test with HL-60(TB) leukemia, 6.32 µM; in the test on SK-OV-3 ovarian, 3.05 µM; with OVCAR-4 ovarian it was 4.05 µM. In addition, the TGI in the test on SR leukemia stood at 5.67 µM; in the test with COLO 205 colon it was 3.3 µM; with ACHN renal, 3.43 µM.

With `O=Cc1ccc(-c2ccc(-c3nc4ccccc4s3)cc2)s1`, the GI50 in the test on T-47D breast is more than 100000 nM; in the test on MDA-MB-231 breast, 17.6 µM; in the test on IGROV1 ovarian, 55.8 µM; in the test with HL-60(TB) leukemia it was 34800 nM; in the test on SK-OV-3 ovarian, more than 100 µM; in the test on SF-539 CNS, 30.7 µM. The GI50 is more than 100 µM in the test with OVCAR-4 ovarian, more than 100000 nM with COLO 205 colon and 43.5 µM in the test with ACHN renal. Besides, the TGI with T-47D breast was more than 100 µM; in the test on MDA-MB-231 breast it was 78.2 µM; with IGROV1 ovarian, more than 100 µM; with HL-60(TB) leukemia, more than 100 µM; in the test with SK-OV-3 ovarian, more than 100 µM; with SF-539 CNS, more than 100 µM. The TGI in the test on OVCAR-4 ovarian, in the test on COLO 205 colon and in the test with ACHN renal was more than 100 µM in each case.

Consider `CN1CCN(c2nc(-c3csc(-c4cccs4)n3)cc3ccccc23)CC1`, for which the GI50 in the test with T-47D breast is 1850 nM; with MDA-MB-231 breast, 1.53 µM; in the test with IGROV1 ovarian, 1.57 µM; in the test with HL-60(TB) leukemia, 2170 nM; in the test with SF-539 CNS, 1.64 µM; in the test on OVCAR-4 ovarian, 2.18 µM. Besides, the GI50 with SR leukemia was 3.1 µM; with ACHN renal it was 1.8 µM. The TGI is 4.56 µM in the test on T-47D breast; 3.13 µM in the test on MDA-MB-231 breast; 3.12 µM in the test with IGROV1 ovarian; 4.71 µM with HL-60(TB) leukemia; 3.04 µM in the test on SF-539 CNS; 4.73 µM with OVCAR-4 ovarian. The same compound yielded a TGI in the test on ACHN renal of 3.25 µM.

As for `CCCCNc1ccc(Nc2ccccc2)cc1`, the GI50 in the test on T-47D breast is 1650 nM; with MDA-MB-231 breast it was 16.9 µM; with IGROV1 ovarian, 5.61 µM; in the test on HL-60(TB) leukemia, 2050 nM; with SK-OV-3 ovarian, 12.6 µM; in the test with SF-539 CNS, 11.8 µM. For the same compound, the GI50 with OVCAR-4 ovarian was 4.35 µM; in the test with COLO 205 colon, 2770 nM; in the test on ACHN renal, 16.7 µM. The TGI with T-47D breast amounted to 47 µM; in the test with MDA-MB-231 breast it was 95 µM; in the test on IGROV1 ovarian it was 27.2 µM; in the test with HL-60(TB) leukemia it was 5.35 µM; in the test with SK-OV-3 ovarian, 70.3 µM; in the test on SF-539 CNS, 57.3 µM. Besides, the values for the TGI in the test on OVCAR-4 ovarian, with COLO 205 colon and in the test on ACHN renal were more than 100 µM, 11.7 µM and more than 100 µM, respectively.

Regarding `CCC(C)C(=O)OCC(=O)c1ccc(-c2ccccc2)cc1` (configuration not stated), the TGI with T-47D breast, with MDA-MB-231 breast, with IGROV1 ovarian, in the test on HL-60(TB) leukemia, in the test with SK-OV-3 ovarian and in the test on SF-539 CNS was more than 100 µM each time. Further, the TGI with SR leukemia, in the test with COLO 205 colon and in the test with ACHN renal was more than 100 µM in each case.
